Assays:
[1] = molecular target: Serine/threonine-protein kinase PRP4 homolog (Homo sapiens) (UniProt Q13523); experiment: Selectivity interaction (ActivX KiNativ screen (kinase selectivity in THP-1 cell lysates)) EUB0000639a PRPF4; type: subcellular; conditions: lysate, at 0.04 µM
[2] = molecular target: Serine/threonine-protein kinase 32B (Homo sapiens) (UniProt Q9NY57); experiment: Selectivity interaction (LanthaScreen Eu Kinase Binding Assay) EUB0001632a STK32B; conditions: at 10 µM
[3] = molecular target: Ribosomal protein S6 kinase alpha-1 (Homo sapiens, UniProt Q15418); experiment: Selectivity interaction (KinomeScan (DiscoverX)) EUB0000695a RPS6KA1; conditions: at 100 nM
Chain of Ribosomal protein S6 kinase alpha-1 (Q15418 whole entry): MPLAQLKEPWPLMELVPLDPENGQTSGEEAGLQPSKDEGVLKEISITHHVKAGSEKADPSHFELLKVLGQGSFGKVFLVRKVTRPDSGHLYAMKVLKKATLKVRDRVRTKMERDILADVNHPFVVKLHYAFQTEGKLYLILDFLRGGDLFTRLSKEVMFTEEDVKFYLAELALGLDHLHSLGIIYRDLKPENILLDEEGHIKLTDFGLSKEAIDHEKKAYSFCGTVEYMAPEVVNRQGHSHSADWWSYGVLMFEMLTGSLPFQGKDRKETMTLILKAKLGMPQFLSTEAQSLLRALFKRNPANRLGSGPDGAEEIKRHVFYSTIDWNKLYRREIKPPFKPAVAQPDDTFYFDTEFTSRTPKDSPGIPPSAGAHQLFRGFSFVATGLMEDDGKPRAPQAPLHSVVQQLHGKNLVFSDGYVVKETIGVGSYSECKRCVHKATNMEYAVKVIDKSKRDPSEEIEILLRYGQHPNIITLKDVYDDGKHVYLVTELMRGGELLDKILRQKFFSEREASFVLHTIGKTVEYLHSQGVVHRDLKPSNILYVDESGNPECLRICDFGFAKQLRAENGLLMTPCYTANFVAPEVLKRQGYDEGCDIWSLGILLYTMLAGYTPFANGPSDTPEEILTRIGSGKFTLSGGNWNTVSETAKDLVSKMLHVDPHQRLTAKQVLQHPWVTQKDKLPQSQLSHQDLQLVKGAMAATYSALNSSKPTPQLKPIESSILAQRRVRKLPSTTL

[4] = molecular target: Bone morphogenetic protein receptor type-1B (Homo sapiens, UniProt O00238); experiment: Selectivity interaction (KinomeScan (DiscoverX)) EUB0000229b BMPR1B; conditions: at 10 µM
Chain of Bone morphogenetic protein receptor type-1B (O00238 whole entry): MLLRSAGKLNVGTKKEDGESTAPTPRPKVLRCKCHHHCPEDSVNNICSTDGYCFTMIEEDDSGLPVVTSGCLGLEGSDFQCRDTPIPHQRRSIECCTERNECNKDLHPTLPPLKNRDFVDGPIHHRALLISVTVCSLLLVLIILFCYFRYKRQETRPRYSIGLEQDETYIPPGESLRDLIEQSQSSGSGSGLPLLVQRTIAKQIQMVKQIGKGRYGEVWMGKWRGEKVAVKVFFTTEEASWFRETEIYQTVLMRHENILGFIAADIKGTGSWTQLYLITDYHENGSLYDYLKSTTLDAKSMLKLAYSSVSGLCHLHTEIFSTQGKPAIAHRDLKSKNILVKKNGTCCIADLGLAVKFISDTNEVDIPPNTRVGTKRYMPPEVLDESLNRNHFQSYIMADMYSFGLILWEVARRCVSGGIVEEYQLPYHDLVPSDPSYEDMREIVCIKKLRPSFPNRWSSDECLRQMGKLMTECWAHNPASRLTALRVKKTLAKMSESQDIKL

[5] = molecular target: CDC7/DBF4 (Cell division cycle 7-related protein kinase/Activator of S phase kinase) (Homo sapiens) (UniProt Q9UBU7+O00311); experiment: Selectivity interaction (ProQinase) EUB0000171b CDC7; type: protein-complex assay
Chain of CDC7/DBF4 (Cell division cycle 7-related protein kinase/Activator of S phase kinase) (Homo sapiens) (O00311 whole entry, looked up): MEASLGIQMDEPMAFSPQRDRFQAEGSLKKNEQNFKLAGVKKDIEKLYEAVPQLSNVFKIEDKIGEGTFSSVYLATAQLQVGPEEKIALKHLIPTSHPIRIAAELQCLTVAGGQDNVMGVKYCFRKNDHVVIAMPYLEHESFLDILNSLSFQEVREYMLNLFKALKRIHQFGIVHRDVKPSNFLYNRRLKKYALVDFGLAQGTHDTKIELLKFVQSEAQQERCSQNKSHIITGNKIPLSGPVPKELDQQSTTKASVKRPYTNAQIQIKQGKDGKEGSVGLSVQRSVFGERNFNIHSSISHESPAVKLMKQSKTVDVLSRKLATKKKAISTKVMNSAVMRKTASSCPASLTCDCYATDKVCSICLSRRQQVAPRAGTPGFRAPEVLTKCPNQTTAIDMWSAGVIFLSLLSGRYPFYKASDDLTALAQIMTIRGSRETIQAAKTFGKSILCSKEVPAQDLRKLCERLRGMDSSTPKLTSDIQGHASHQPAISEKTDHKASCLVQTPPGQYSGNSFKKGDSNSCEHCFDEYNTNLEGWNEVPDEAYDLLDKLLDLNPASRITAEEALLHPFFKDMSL
Chain of CDC7/DBF4 (Cell division cycle 7-related protein kinase/Activator of S phase kinase) (Homo sapiens) (Q9UBU7 whole entry, looked up): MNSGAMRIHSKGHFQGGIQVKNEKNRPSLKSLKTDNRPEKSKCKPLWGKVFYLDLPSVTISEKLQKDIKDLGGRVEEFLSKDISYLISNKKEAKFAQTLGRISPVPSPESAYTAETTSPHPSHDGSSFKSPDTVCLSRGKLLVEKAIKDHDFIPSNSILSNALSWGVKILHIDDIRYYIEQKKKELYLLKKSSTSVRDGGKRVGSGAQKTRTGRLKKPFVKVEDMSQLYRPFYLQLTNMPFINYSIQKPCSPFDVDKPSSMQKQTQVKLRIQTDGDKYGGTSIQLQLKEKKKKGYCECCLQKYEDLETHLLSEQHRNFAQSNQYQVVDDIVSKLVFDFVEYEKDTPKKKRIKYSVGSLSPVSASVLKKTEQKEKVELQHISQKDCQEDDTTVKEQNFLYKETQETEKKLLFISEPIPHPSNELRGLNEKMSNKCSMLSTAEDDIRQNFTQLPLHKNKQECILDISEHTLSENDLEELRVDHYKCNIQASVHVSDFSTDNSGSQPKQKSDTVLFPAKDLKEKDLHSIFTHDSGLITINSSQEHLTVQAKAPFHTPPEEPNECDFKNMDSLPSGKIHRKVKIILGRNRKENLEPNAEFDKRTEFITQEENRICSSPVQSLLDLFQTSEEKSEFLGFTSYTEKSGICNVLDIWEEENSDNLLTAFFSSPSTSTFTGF

[6] = molecular target: T1, Serine/threonine-protein kinase 3 (Homo sapiens) (UniProt Q13188); experiment: Selectivity interaction (Upstate Kinase Profiler service (Millipore)) EUB0000056c STK3; conditions: at 1 µM
T1 sequence (whole entry): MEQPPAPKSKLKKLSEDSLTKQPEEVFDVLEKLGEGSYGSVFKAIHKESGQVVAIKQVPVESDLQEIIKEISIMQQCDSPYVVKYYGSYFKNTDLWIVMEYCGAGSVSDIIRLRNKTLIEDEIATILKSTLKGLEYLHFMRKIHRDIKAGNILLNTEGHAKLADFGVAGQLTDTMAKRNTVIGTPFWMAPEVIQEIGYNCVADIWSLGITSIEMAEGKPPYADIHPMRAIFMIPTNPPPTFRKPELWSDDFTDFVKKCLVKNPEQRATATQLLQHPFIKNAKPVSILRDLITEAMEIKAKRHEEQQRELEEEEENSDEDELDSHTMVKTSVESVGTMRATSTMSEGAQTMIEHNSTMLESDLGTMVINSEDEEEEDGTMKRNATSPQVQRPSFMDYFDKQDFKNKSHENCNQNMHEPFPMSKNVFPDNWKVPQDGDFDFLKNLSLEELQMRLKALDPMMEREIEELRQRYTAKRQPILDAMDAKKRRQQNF

[7] = molecular target: Cyclin-dependent kinase 1/cyclin B (Homo sapiens) (UniProt P06493+P14635+Q8WWL7+O95067); experiment: Selectivity interaction (SelectScreen profiling (Invitrogen)) EUB0000607a CDK1; type: protein-complex assay; conditions: at 2 µM
[8] = molecular target: T2, MAP/microtubule affinity-regulating kinase 4 (Homo sapiens) (UniProt Q96L34); experiment: Selectivity interaction (Kinase panel (KiNativ target engagement assay in Jurkat cells)) EUB0001635a MARK4; type: cell-based; conditions: Selectivity number of off-targets 0.0, Selectivity number of targets 233.0, Source Knowledge https://www.sciencedirect.com/science/article/pii/S2451945619300674?via%3Dihub, at 1 µM
T2 sequence (whole entry): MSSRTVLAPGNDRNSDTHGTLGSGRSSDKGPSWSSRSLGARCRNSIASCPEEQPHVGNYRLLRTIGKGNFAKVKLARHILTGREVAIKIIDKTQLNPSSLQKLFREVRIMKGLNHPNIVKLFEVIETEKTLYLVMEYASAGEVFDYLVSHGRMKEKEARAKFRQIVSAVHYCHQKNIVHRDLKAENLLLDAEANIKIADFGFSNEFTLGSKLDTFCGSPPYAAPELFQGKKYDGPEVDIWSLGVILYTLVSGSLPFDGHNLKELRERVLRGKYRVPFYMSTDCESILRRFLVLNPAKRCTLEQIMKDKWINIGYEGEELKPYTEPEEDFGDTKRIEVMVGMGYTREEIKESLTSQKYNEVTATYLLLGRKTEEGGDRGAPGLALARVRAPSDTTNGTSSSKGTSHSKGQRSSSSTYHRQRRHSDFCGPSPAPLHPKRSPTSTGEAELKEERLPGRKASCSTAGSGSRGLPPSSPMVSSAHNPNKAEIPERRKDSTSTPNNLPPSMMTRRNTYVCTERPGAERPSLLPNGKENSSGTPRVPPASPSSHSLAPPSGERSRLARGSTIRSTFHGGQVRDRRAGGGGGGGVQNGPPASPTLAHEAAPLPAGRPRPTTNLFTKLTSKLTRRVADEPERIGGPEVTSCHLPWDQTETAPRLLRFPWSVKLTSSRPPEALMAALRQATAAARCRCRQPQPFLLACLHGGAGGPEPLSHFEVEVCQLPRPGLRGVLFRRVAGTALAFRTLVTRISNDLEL

[9] = molecular target: Mitogen-activated protein kinase 4 (Homo sapiens) (UniProt P31152); experiment: Selectivity interaction (KinomeScan (DiscoverX)) EUB0000666a MAPK4; conditions: at 10 µM
Chain of Mitogen-activated protein kinase 4 (Homo sapiens) (P31152 whole entry): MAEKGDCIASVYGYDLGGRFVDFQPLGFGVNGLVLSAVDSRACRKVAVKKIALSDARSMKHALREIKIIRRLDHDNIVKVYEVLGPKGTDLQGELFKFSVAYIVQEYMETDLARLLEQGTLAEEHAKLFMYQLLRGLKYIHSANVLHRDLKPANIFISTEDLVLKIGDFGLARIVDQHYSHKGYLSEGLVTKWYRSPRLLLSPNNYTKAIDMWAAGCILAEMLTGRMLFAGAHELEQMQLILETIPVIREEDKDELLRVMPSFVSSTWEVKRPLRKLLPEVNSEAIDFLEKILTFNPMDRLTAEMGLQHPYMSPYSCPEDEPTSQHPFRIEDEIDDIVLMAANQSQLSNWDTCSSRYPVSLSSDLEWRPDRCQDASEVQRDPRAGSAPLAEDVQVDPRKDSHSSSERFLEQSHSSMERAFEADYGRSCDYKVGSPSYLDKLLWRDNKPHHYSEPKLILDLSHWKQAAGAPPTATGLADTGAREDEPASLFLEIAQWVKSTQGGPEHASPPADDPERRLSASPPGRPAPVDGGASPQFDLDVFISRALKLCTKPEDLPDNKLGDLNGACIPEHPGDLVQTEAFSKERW

[10] = molecular target: T3, Serine/threonine-protein kinase Nek3 (Homo sapiens) (UniProt P51956); experiment: Selectivity interaction (KinomeScan (DiscoverX)) EUB0000666a NEK3; conditions: at 10 µM
T3 sequence (whole entry): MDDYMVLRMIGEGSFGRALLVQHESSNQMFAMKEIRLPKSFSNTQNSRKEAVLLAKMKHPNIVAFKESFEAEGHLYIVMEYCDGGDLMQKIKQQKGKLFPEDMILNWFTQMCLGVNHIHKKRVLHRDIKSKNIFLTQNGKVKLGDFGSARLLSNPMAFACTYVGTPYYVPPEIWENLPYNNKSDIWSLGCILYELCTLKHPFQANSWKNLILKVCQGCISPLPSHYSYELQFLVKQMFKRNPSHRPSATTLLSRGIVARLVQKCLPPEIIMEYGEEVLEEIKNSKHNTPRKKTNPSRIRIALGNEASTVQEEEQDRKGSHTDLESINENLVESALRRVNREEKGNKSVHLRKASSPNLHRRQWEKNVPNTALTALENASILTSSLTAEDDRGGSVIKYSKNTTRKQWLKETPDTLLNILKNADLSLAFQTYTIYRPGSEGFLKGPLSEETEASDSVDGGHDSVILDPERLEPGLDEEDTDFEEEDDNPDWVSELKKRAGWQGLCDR

Chain of Serine/threonine-protein kinase PRP4 homolog (Homo sapiens) (Q13523 whole entry): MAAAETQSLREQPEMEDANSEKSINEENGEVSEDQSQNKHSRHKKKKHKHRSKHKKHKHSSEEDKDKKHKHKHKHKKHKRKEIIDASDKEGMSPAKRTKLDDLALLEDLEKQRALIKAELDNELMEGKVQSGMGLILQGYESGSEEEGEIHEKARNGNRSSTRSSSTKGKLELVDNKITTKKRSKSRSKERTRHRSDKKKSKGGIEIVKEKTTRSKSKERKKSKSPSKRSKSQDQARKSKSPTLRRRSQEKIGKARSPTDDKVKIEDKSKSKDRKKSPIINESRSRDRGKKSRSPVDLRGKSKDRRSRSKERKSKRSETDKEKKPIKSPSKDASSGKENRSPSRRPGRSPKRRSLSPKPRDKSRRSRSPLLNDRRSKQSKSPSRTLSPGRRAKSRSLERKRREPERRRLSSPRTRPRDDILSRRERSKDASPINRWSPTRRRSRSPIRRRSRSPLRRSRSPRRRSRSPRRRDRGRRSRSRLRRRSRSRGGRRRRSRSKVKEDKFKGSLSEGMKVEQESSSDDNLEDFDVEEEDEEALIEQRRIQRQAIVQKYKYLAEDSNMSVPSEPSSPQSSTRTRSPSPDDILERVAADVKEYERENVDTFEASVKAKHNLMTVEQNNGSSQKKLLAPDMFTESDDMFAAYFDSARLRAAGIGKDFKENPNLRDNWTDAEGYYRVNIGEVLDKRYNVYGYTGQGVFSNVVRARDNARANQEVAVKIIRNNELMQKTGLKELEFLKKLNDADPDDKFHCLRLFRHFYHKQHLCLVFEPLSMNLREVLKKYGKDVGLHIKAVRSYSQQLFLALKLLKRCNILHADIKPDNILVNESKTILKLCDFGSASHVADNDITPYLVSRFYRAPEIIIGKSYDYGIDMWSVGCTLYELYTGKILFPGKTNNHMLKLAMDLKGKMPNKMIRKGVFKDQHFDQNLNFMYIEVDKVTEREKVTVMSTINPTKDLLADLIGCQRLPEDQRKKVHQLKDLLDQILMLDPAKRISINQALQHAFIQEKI
Chain of Serine/threonine-protein kinase 32B (Homo sapiens) (Q9NY57 whole entry): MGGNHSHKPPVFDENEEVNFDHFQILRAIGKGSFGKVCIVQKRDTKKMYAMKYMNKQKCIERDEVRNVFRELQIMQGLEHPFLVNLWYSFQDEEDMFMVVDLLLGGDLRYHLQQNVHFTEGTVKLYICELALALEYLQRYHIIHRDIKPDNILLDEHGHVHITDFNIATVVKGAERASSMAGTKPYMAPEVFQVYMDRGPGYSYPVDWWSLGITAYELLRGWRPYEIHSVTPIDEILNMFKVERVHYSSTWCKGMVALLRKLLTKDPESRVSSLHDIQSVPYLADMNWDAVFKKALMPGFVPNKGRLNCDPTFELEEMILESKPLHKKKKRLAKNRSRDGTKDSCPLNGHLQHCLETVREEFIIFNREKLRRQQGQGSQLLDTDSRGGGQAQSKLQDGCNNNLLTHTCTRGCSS

## CC[C@@H]1[C@H](F)C(=O)N[C@@H]1COc1nccc2cc(C(N)=O)c(OC)cc12 [ZIMLOVISERTIB]
[1]
  % of inhibition: 4.1%

## Cn1cc(-n2cnc3c(NCc4nc5cc(Cl)c(Cl)cc5[nH]4)nc(N4CCOCC4)nc32)cn1
[2]
  % of inhibition: -8.62%

## Cc1cc(F)c(C(=O)Nc2cccc(-c3nncn3C(C)C)n2)cc1-n1cnc(C2CC2)c1
[3]
  % of control: 100%

## COc1cc(N(C)c2ccnc3ccc(C(F)(F)F)cc23)cc(OC)c1OC
[4]
  % binding: 73%

## C=CC(=O)Nc1cccc(C(=O)Nc2ccc(Nc3cc(-c4[nH]c(SC)nc4C)ccn3)cc2)c1
[5]; at 1 µM
  % of control: 94%
[5]; at 5 µM
  % of control: 89%

## Cc1ccc(-c2ccc3c(ccc4sc5c(c43)NC[C@@H](C)NC5=O)n2)cn1
[6]
  % of inhibition: -17%

## CNC(=O)Nc1ccc(-c2nc(N3CC4CCC(C3)O4)c3cnn(C4CCC5(CC4)OCCO5)c3n2)cc1
[7]
  % of inhibition: 6%

## C=CC(=O)Nc1ccc(C(=O)Nc2[nH]nc3c2CN(C(=O)N[C@H](CN(C)C)c2ccccc2)C3(C)C)cc1
[8]
  % of engagement: 55.8%

## O=C(NOC[C@H](O)CO)c1ccc(F)c(F)c1Nc1ccc(I)cc1F
[9]
  % of control: 77%
[10]
  % of control: 100%
